Test results: PMC12223813, “Antiproliferative and Trypanocidal Activity of Ivermectin Bioconjugates” (ACS Omega, 2025)

Legend:
[1] = system: human promyelocytic leukemia HL-60 cells; assay: Cytotoxic activity, resazurin cell viability assay; type: cell-based; settings: 72 h total (24 h + 48 h with resazurin), mean ± SD of three independent experiments
Protocol: (§1) The trypanocidal and cytotoxic activities of the newly synthesized IVR bioconjugates and their conjugation partners were determined for bloodstream forms of T. brucei brucei and human myeloid HL-60 cells in vitro using the resazurin cell viability assay as previously described.
(§2) Test compounds were assayed at 10-fold dilutions ranging from 100 μM to 1 nM in the presence of 0.9% DMSO. Controls were grown in the culture medium containing only 0.9% DMSO. The assays were cultured in an incubator at 37 °C in a humidified atmosphere containing 5% CO2. After 24 h incubation, 20 μL of 0.5 mM resazurin (prepared in sterile PBS) was added, and the cultures were grown for another 48 h. Then, the proliferation of the cells was determined by measuring the absorbance at 570 nm (test wavelength) and 630 nm (reference wavelength) using a microplate reader.

[2] = system: bloodstream forms of T. b. brucei (427-221a clone); assay: microbe, parasite or virus in culture; settings: for selectivity GI50 ratio: GI50(HL-60)/GI50(T. brucei); for GI50: Trypanosoma brucei, 72 h, read-out: T. brucei GI50, bloodstream forms, 72 h total (24 h + 48 h with resazurin), mean ± SD of three independent experiments
Protocol: as §1, §2

[3] = in vitro; settings: human
Protocol: as §1, §2

[4] = system: HCT-116, human primary colon cancer cell line; assay: Antiproliferative activity, MTT assay; type: cell-based; settings: for IC50: Homo sapiens, HCT-116, 72 h, MTT, mean ± SD; for HCT-116 SI: SI = IC50 HaCaT/IC50 HCT-116
Protocol: (§3) Additionally, to assess the selectivity of these compounds toward cancer cells, we included an immortalized keratinocyte cell line from adult human skin (HaCaT) in the antiproliferative activity tests. Doxorubicin served as the reference anticancer drug.
(§4) The culture media were enriched with 10% fetal bovine serum (FBS, Sigma-Aldrich, St. Louis, MO, USA), 20 mM HEPES (Biowest, Nuaillé, France), and antibiotics (100 U/mL penicillin and 100 μg/mL streptomycin) obtained from Gibco (Grand Island, NY, USA). The cells were maintained in a humidified incubator at 37 °C with 5% CO2 until they reached 80–90% confluence, after which they were used for further experiments.
(§5) To assess the cytotoxicity, the cells (0.5 × 10^4/well) were plated in 96-well plates and allowed to adhere for 24 h. The MTT (3-(4,5-dimethylthiazol-2-yl)-2,5-diphenyltetrazolium bromide) assay was used to evaluate the cytotoxic effects of IVR bioconjugates on all tested cell lines. After 24 h incubation, cells were exposed to varying concentrations (1 to 100 μM) of the test compounds for 72 h. Following the treatment, the medium was discarded, and a 0.5 mg mL^–1 MTT solution was added to each well and incubation was continued for another 4 h. Mitochondrial enzyme activity facilitated the formation of formazan crystals, which were subsequently dissolved in DMSO-isopropanol (1:1, v/v), producing a violet-colored solution. A 100 μL aliquot of this solution was transferred to the well, and absorbance was recorded at 570 nm using a MultiscanGo spectrophotometer (ThermoFisher Scientific, Carlsbad, CA, USA).
(§6) Cytotoxicity was quantified by comparing the absorbance of the treated cells to that of untreated controls using the formula: [A]/[B] × 100, where [A] represents the absorbance of the treated sample and [B] corresponds to the absorbance of the control sample. A decrease in MTT levels reflects a decrease in cell viability.

[5] = system: PC3, human metastatic prostate cancer cell line; assay: Antiproliferative activity, MTT assay; type: cell-based; settings: for IC50: Homo sapiens, 72 h, MTT, mean ± SD; for PC3 SI: SI = IC50 HaCaT/IC50 PC3
Protocol: as §3, §4, §5, §6

[6] = system: MDA-MB-231, human triple-negative breast cancer cell line; assay: Antiproliferative activity, MTT assay; type: cell-based; settings: for IC50: Homo sapiens, MDA-MB-231, 72 h, MTT, mean ± SD; for MDA-MB-231 SI: SI = IC50 HaCaT/IC50 MDA-MB-231
Protocol: as §3, §4, §5, §6

[7] = system: A549, human lung cancer cell line; assay: Antiproliferative activity, MTT assay; type: cell-based; settings: for IC50: Homo sapiens, A549, 72 h, MTT, mean ± SD; for A549 SI: SI = IC50 HaCaT/IC50 A549
Protocol: as §3, §4, §5, §6

[8] = system: HaCaT, human immortalized keratinocyte cell line; assay: Cytotoxicity toward normal cells, MTT assay; type: cell-based; settings: 72 h, mean ± SD
Protocol: as §3, §4, §5, §6

For CCC(C)C1OC2(CCC1C)CC1CC(CC=C(C)C(OC(=O)Cn3cc(COC(=O)CCC(=O)OC4OC5OC6(C)CCC7C(C)CCC(C4C)C57OO6)nn3)C(C)C=CC=C3COC4C(O)C(C)=CC(C(=O)O1)C34O)O2 (stereo not drawn) [compound 16, Ivermectin–Artesunate Conjugate], the GI50 [1] was 18 ± 6 µM, the “selectivity GI50 ratio” value [2] was 46.2 and the “antitrypanosomal activity, times stronger than IVR” value ([2]; relative to IVR GI50) was 7 times. The “antitrypanosomal activity, times stronger than artesunate” value ([2]; relative to artesunate GI50) was 9 times, the selectivity ratio [3] was greater than 256 and the IC50 [4] was 4.5 ± 0.6 µM. For the same compound, the “HCT-116 SI” value [4] was greater than 22.2, the IC50 [5] was 20.8 ± 7.2 µM and the “PC3 SI” value [5] was greater than 4.8. For the same compound, the IC50 [6] was 13 ± 4.1 µM, the “MDA-MB-231 SI” value [6] was greater than 7.7 and the IC50 [7] was 3.8 ± 1.3 µM. The “A549 SI” value [7] was greater than 26.3 and the IC50 [8] was greater than 100 µM.

For Cc1ncc([N+](=O)[O-])n1CCO [metronidazole, reference compound], the GI50 [1] was greater than 100 µM, the “selectivity GI50 ratio” value [2] was “∼1.0” and the IC50 [4] was greater than 100 µM. For the same compound, the “HCT-116 SI” value [4] was “∼1.0”, the IC50 [5] was 57 ± 6.1 µM and the “PC3 SI” value [5] was greater than 1.8. For the same compound, the IC50 [6] was 14.9 ± 3.9 µM, the “MDA-MB-231 SI” value [6] was greater than 6.7 and the IC50 [7] was greater than 100 µM. For the same compound, the “A549 SI” value [7] was “∼1.0” and the IC50 [8] was greater than 100 µM.

For C=C[C@H]1C[N@@]2CC[C@H]1C[C@@H]2[C@@H](O)c1ccnc2ccc(OC)cc12 [quinidine, reference compound], the GI50 [1] was greater than 100 µM, the GI50 [2] was 0.32 ± 0.04 µM and the IC50 [4] was 67.4 ± 8.9 µM. For the same compound, the IC50 [5] was 86.1 ± 1.2 µM, the IC50 [6] was 76.2 ± 4.6 µM and the IC50 [7] was 55.8 ± 5.3 µM. The IC50 [8] was greater than 100 µM.

With C=C[C@H]1C[N@@]2CC[C@H]1C[C@H]2[C@H](O)c1ccnc2ccc(OC)cc12 [quinine, reference compound] the GI50 [1] was greater than 100 µM, the GI50 [2] was 1.1 ± 0.3 µM and the IC50 [4] was 32.8 ± 3.8 µM. The IC50 [5] was 56.3 ± 7.2 µM, the IC50 [6] was 54.4 ± 7 µM and the IC50 [7] was 56.4 ± 3.2 µM. The IC50 [8] was greater than 100 µM.
